According to publication PMC6073423, “Dose-Dependent Increase in Unconjugated Cinnamic Acid Concentration in Plasma Following Acute Consumption of Polyphenol Rich Curry in the Polyspice Study” (Nutrients, 2018):
Read-outs that look alike come from different tables or passages of the source.

Key:
[1] = cited from earlier work
[2] = Compartmental nutrikinetic modeling of the CNA plasma concentration-time profile (one-compartment, first-order elimination); format: in vivo; details: male, human, oral; for AUC: read-out: AUC (one-compartment model); for Cmax: read-out: Cmax (one-compartment model); for k el: read-out: Ke, elimination rate constant (converted)
Experimental: Compartmental parameter estimates for CNA were determined after fitting of concentration data to several compartmental models on Phoenix WinNonlin (Table S3). The Gauss-Newton algorithm was applied and the final model selection was based on goodness-of-fit comparisons, examination of the residual plots, correlation of the observed and predicted values, and Akaike information criterion. 1/Y^2 model yielded the best fit amongst the various weighting schemes used (1/Y, 1/Y^2, and actual). The final nutrikinetic curve best fit into a one-compartment, first-order elimination, as described by:(1) C(T)=DKa/V (Ka−Ke) [e^−KeT−e^−KaT] where C is the plasma concentration, T is time, Ka is the first-order absorption rate, Ke is the first-order elimination rate constant, D is dose, and V is the apparent volume of distribution. Secondary parameters determined from the model included the Cmax, Tmax, AUC0–7 h as well as the terminal half-life.

[3] = Plasma nutrikinetics of unconjugated phenolic/aromatic acids after curry test meals (LC-MS/MS, non-compartmental); details: for AUC(0-t) / Cmax: male, human; for plasma concentration: all three doses
Description: The detailed methods for this Polyspice study have been described elsewhere. In brief, this was a three-way randomized, controlled, crossover, acute feeding trial in healthy Chinese males (age 23.7 ± 2.30 y, BMI 23.0 ± 2.31 kg/m^2). Three days prior to the main test day, each volunteer avoided vigorous physical activity and adopted a low polyphenol diet. To help adhere to a ‘low polyphenol diet’ in this run-in period, volunteers were provided with a list of polyphenol rich foods to avoid, which consisted of some fruits and fruit juices, spices and condiments, olive oil, certain vegetables, whole grain cereals, cocoa products, tea (including Green tea), coffee, red wine etc. […] On the main test day, the volunteers arrived at the study center in the morning after an overnight fasting period of a minimum of 10 h. On each of 3 test sessions, the volunteers consumed in random order 1 of 3 test meals: Dose 0 Control (D0C), Dose 1 Curry (D1C) and Dose 2 Curry (D2C). D0C, D1C, and D2C contained 0 g, 6 g, and 12 g mixed spices respectively. The mixed spices were prepared by thoroughly mixing dried powders of 7 different spices consisting of turmeric (Everest Spices, Mumbai, India), coriander seeds (Everest Spices, Mumbai, India), cumin seeds (Everest Spices, Mumbai, India), dried Indian gooseberry (‘amla’, Emblica officinalis, Ramdev Spices, Ahmedabad, India), cayenne pepper (Robertson’s, Durban, South Africa), cinnamon (McCormick’s, Baltimore, MD, USA), and clove (Robertson’s, South Africa) in the ratio of 8:4:4:4:2:1:1 respectively. The ‘base vegetables’ used in the curry recipes consisted of tomatoes, onions, ginger, and garlic in the ratio of 5:2:1:1, with D0C, D1C and D2C containing 0 g, 90 g, and 180 g base vegetables respectively. […] The 3 test meals were matched for total vegetable content by including 130 g peeled eggplant (Solanum melongena) and 50 g tomatoes to D0C and 90 g peeled eggplant to D1C. Plain white rice was consumed along with each test meal and the composition of all 3 test meals were isocaloric and macronutrients matched. A standardized lunch was served after the 3 h postprandial blood draw time point, consisting of a made-to-order chicken lasagna (TopChoice Food Industries (S) Pte Ltd., Singapore), which specifically excluded polyphenol-rich ingredients such as black pepper, herbs, spices, onion, garlic or ginger from the product’s original recipe. There was a minimum of 1-week washout period between each session.
The plasma sample was centrifuged at 1500 g for 10 min at 4 °C within 45 min of collection. Aliquots were stored at −80 °C until analysis.
The panel of phenolic/aromatic acids chosen for analyses were based on the predicted metabolic fate of polyphenols contained within the ingredients used in our test meals, as described above. […] Ultra-pure water from Adrona (Rīga, Latvija) was used. Unless otherwise stated, all chemicals and reagents were obtained from Sigma-Aldrich (St. Louis, MO, USA).
Stock solutions of 10 mM of each analyte were prepared in acetonitrile. Baseline (0 h) plasma was pooled from all participants and used as a matrix in equal volume for each calibration standard. […] All standard solutions were freshly prepared and kept in −20 °C prior to use.
Protein precipitation was undertaken using 400 μL acetonitrile containing 1 µM of BA-d5 internal standard was added to 100 μL of plasma, calibration, quality control or blank samples. The sample was centrifuged at 16,000 g for 15 min at 4 °C. 400 μL of the supernatant was recovered and evaporated under a nitrogen flow. Finally, extracts were reconstituted with 80 μL of 90% mobile phase A and 10% mobile phase B.

[4] = parameters: method as in PMID 23604435; details: cited from earlier work
[5] = 0 g mixed spices, D0C, Figure 2C
[6] = 6 g mixed spices, D1C, Figure 2C
[7] = 12 g mixed spices, D2C, Figure 2C
[8] = plasma, oral, 12 g mixed spices

In the case of `O=C(O)/C=C/c1ccccc1` [Cinnamic acid (CNA), cinnamic acid], the “fraction eliminated via oxidation (β-oxidation) and subsequent glycine conjugation to form HA” value [1] is listed as 63%, the AUC [2, 5] is listed as 0.0254 µM·h and the Cmax [2, 5] is listed as 2.73 nM. It also gave a k el [2, 5] of 8.06e-05 s⁻¹, a half-life ([2]; 0 g mixed spices, D0C, Figure 2C, read-out: T0.5, half-life (converted)) of 142 min and a Tmax ([2]; 0 g mixed spices, D0C, Figure 2C, read-out: Tmax (one-compartment model)) of 205 min. For the same compound, the AUC [2, 6] was 0.347 µM·h, the Cmax [2, 6] was 144 nM and the k el [2, 6] was 0.000297 s⁻¹. For the same compound, the half-life ([2]; 6 g mixed spices, D1C, Figure 2C, read-out: T0.5, half-life (converted)) was 39 min, the Tmax ([2]; 6 g mixed spices, D1C, Figure 2C, read-out: Tmax (one-compartment model)) was 56.4 min and the AUC [2, 7] was 0.847 µM·h. The Cmax [2, 7] was 323 nM, the k el [2, 7] was 0.000289 s⁻¹ and the half-life ([2]; 12 g mixed spices, D2C, Figure 2C, read-out: T0.5, half-life (converted)) was 40.2 min. For the same compound, the Tmax ([2]; 12 g mixed spices, D2C, Figure 2C, read-out: Tmax (one-compartment model)) was 58.2 min, the half-life ([2]; no lag time, 1st order absorption, 1st order elimination, 1-compartment model, assumes elimination is rate-limiting, read-out: average elimination half-life (converted)) was 39.6 min and the Tmax ([2]; no lag time, 1st order absorption, 1st order elimination, 1-compartment model, read-out: Tmax (average, compartmental model)) was 57.6 min. The “time of plasma peak post consumption” value ([3]; D1C and D2C) was “approximately 1 h”, the “time of secondary peak in plasma” value ([3]; D1C and D2C periods, Figure 2A) was “around 3 h” and the AUC(0-t) ([3]; plasma, oral, 0 g mixed spices) was 0.0084 ± 0.0034 µM·h. For the same compound, the Cmax ([3]; plasma, oral, 0 g mixed spices) was 2.4 ± 0.7 nM, the AUC(0-t) ([3]; plasma, oral, 6 g mixed spices) was 0.376 ± 0.105 µM·h and the Cmax ([3]; plasma, oral, 6 g mixed spices) was 164 ± 47.7 nM. It also gave an AUC(0-t) [3, 8] of 0.876 ± 0.292 µM·h and a Cmax [3, 8] of 342 ± 83 nM.
`O=C(O)CCc1cccc(O)c1` [3-(3-hydroxyphenyl)-propanoic acid] gave an AUC(0-t) ([3]; plasma, oral, 0 g mixed spices) of 0.182 ± 0.126 µM·h, a Cmax ([3]; plasma, oral, 0 g mixed spices) of 58.9 ± 39.1 nM and an AUC(0-t) ([3]; plasma, oral, 6 g mixed spices) of 0.283 ± 0.388 µM·h. For the same compound, the Cmax ([3]; plasma, oral, 6 g mixed spices) was 83.3 ± 79.5 nM, the AUC(0-t) [3, 8] was 0.226 ± 0.177 µM·h and the Cmax [3, 8] was 72.5 ± 48.6 nM.
Work on `O=C(O)Cc1cccc(O)c1` [3-Hydroxyphenylacetic acid (3OH-PAA), 3-hydroxyphenylacetic acid] yielded an AUC(0-t) ([3]; plasma, oral, 0 g mixed spices) of 0.101 ± 0.112 µM·h, a Cmax ([3]; plasma, oral, 0 g mixed spices) of 28.1 ± 26.2 nM and an AUC(0-t) ([3]; plasma, oral, 6 g mixed spices) of 0.106 ± 0.07 µM·h. The Cmax ([3]; plasma, oral, 6 g mixed spices) was 27.2 ± 15.8 nM, the AUC(0-t) [3, 8] was 0.113 ± 0.0904 µM·h and the Cmax [3, 8] was 29.1 ± 20.5 nM.
Work on `O=C(O)CNC(=O)c1cccc(O)c1` [3-Hydroxyhippuric acid (3OH-HA), 3-hydroxyhippuric acid] yielded an AUC(0-t) ([3]; plasma, oral, 0 g mixed spices) of 0.0707 ± 0.0616 µM·h, a Cmax ([3]; plasma, oral, 0 g mixed spices) of 26.3 ± 22.5 nM and an AUC(0-t) ([3]; plasma, oral, 6 g mixed spices) of 0.0801 ± 0.0683 µM·h. The Cmax ([3]; plasma, oral, 6 g mixed spices) was 27.4 ± 19.1 nM, the AUC(0-t) [3, 8] was 0.0884 ± 0.0854 µM·h and the Cmax [3, 8] was 31.3 ± 26.5 nM.
For `O=C(O)c1ccc(O)cc1` [4-Hydroxybenzoic acid (4OH-BA), 4-hydroxybenzoic acid], the AUC(0-t) ([3]; plasma, oral, 0 g mixed spices) was 0.036 ± 0.0233 µM·h, the Cmax ([3]; plasma, oral, 0 g mixed spices) was 13.7 ± 9.9 nM and the AUC(0-t) ([3]; plasma, oral, 6 g mixed spices) was 0.0542 ± 0.0346 µM·h. It also gave a Cmax ([3]; plasma, oral, 6 g mixed spices) of 18.3 ± 12.4 nM, an AUC(0-t) [3, 8] of 0.114 ± 0.207 µM·h and a Cmax [3, 8] of 41.5 ± 101 nM.
In the case of `O=C(O)CCc1ccc(O)cc1` [3-(4-hydroxyphenyl)-propanoic acid], the AUC(0-t) ([3]; plasma, oral, 0 g mixed spices) is reported as 0.126 ± 0.115 µM·h, the Cmax ([3]; plasma, oral, 0 g mixed spices) is reported as 31.4 ± 25 nM and the AUC(0-t) ([3]; plasma, oral, 6 g mixed spices) is reported as 0.178 ± 0.12 µM·h. For the same compound, the Cmax ([3]; plasma, oral, 6 g mixed spices) was 48.6 ± 36.6 nM, the AUC(0-t) [3, 8] was 0.261 ± 0.132 µM·h and the Cmax [3, 8] was 81.7 ± 102 nM.
With `O=C(O)c1cccc(O)c1` [3-Hydoxybenzoic acid (3OH-BA), 3-hydroxybenzoic acid] the plasma concentration [3] was “below detection limits”.
Work on `O=C(O)CCc1ccccc1` [3-Phenylpropanoate acid (PPA), 3-phenylpropanoic acid] yielded an AUC(0-t) ([3]; plasma, oral, 0 g mixed spices) of 0.831 ± 0.784 µM·h, a Cmax ([3]; plasma, oral, 0 g mixed spices) of 279 ± 322 nM and an AUC(0-t) ([3]; plasma, oral, 6 g mixed spices) of 2.39 ± 4.37 µM·h. For the same compound, the Cmax ([3]; plasma, oral, 6 g mixed spices) was 731 ± 1220 nM, the AUC(0-t) [3, 8] was 1.86 ± 3.43 µM·h and the Cmax [3, 8] was 554 ± 985 nM.
`O=C(O)Cc1ccc(O)cc1` [4-Hydroxyphenylacetic acid (4OH-PAA), 4-hydroxyphenylacetic acid] showed an AUC(0-t) ([3]; plasma, oral, 0 g mixed spices) of 2.07 ± 1.45 µM·h, a Cmax ([3]; plasma, oral, 0 g mixed spices) of 566 ± 322 nM and an AUC(0-t) ([3]; plasma, oral, 6 g mixed spices) of 2.38 ± 1.07 µM·h. The Cmax ([3]; plasma, oral, 6 g mixed spices) was 667 ± 305 nM, the AUC(0-t) [3, 8] was 2.17 ± 1.07 µM·h and the Cmax [3, 8] was 633 ± 285 nM.
In the case of `O=C(O)CNC(=O)c1ccccc1` [Hippuric acid (HA), hippuric acid], the half-life [4] is listed as 1320 min, the AUC(0-t) ([3]; plasma, oral, 0 g mixed spices) is listed as 1.83 ± 1.42 µM·h and the Cmax ([3]; plasma, oral, 0 g mixed spices) is listed as 1290 ± 706 nM. For the same compound, the AUC(0-t) ([3]; plasma, oral, 6 g mixed spices) was 3.22 ± 3.1 µM·h, the Cmax ([3]; plasma, oral, 6 g mixed spices) was 1370 ± 1170 nM and the AUC(0-t) [3, 8] was 3.06 ± 1.8 µM·h. The Cmax [3, 8] was 1080 ± 616 nM and the “maximum concentration in plasma” value ([3]; most abundant phenolic acid in plasma, Table 1) was “above 1200 nM”.
In the case of `O=C(O)c1ccccc1` [Benzoic acid (BA), benzoic acid], the AUC(0-t) ([3]; in vivo, 0 g mixed spices) is reported as 0.348 ± 0.0868 µM·h, the Cmax ([3]; in vivo, 0 g mixed spices) is reported as 114 ± 36.7 nM and the AUC(0-t) ([3]; in vivo, 6 g mixed spices) is reported as 0.347 ± 0.107 µM·h. The Cmax ([3]; in vivo, 6 g mixed spices) was 113 ± 33.6 nM, the AUC(0-t) ([3]; in vivo, 12 g mixed spices) was 0.355 ± 0.123 µM·h and the Cmax ([3]; in vivo, 12 g mixed spices) was 109 ± 34.6 nM.
Work on `O=C(O)Cc1ccccc1` [Phenylacetic acid (PAA), phenylacetic acid] yielded an AUC(0-t) ([3]; in vivo, 0 g mixed spices) of 1.74 ± 1.24 µM·h, a Cmax ([3]; in vivo, 0 g mixed spices) of 433 ± 287 nM and an AUC(0-t) ([3]; in vivo, 6 g mixed spices) of 4.44 ± 2.97 µM·h. It also gave a Cmax ([3]; in vivo, 6 g mixed spices) of 1020 ± 826 nM, an AUC(0-t) ([3]; in vivo, 12 g mixed spices) of 4.13 ± 2.95 µM·h and a Cmax ([3]; in vivo, 12 g mixed spices) of 1000 ± 666 nM.
With `O=C(O)CNC(=O)c1ccc(O)cc1` [4-Hydroxyhippuric acid (4OH-HA), 4-hydroxyhippuric acid] the plasma concentration [3] was “below detection limits”.
